Measured values as given in patent US8518891B2 (priority 2006, dated 2013).
Several values for one entry are separate records, joined by “and”; a condition that tells them apart may be missing. Identical values can stand only once. Like-named read-outs stand apart in the source and are kept apart here. Numbered stars: 1 amine (or outer) side, 2 acyl side, 3 side chain; on linkers, the order of the positions; unused ones are H or OH. Square brackets hold non-standard residues; d marks the D form. Peptide text beside a SMILES is read from it. * marks the point of attachment. X5 = NP(=O)(OCc1c(F)c(F)c(N*)c(F)c1F)N(CCCl)CCCl; X4 = NP(=O)(OCc1c(F)cc(N*)cc1F)N(CCCl)CCCl; X2 = NP(=O)(OCc1ccc(N*)c(F)c1)N(CCCl)CCCl; X1 = NP(=O)(OCc1ccc(N*)cc1F)N(CCCl)CCCl; X3 = NP(=O)(OCc1ccc(N*)cc1)N(CCCl)CCCl; Glutaryl = O=C(CCCC(=O)[*:2])[*:1]; Hyp = O=C(O)[C@@H]1C[C@@H](O)CN1; Chg = N[C@H](C(=O)O)C1CCCCC1

How the values were obtained:
[1] = Stability of peptide-linker-drug conjugates in the absence of PSA, disappearance monitored by HPLC; assay type: physicochemical; conditions: for half-life: 0.1 M phosphate buffer, pH 7.4, 37° C., read-out: T1/2 -PSA (stability) (converted); for Stability relative to 5a in the absence of PSA: in words
Procedure: (§1) First, the stability and PSA cleavage of glutaryl-Hyp-Ala-Ser-Chg-Gln-aminobenzyl phosphoramide mustard without substitutions on the benzyl ring (5a) was tested by monitoring the disappearance of the peptide-linker-drug conjugate using HPLC. […] Thus, peptide-linker-drug conjugate 5a is a substrate of PSA. The hydrolysis in the presence of PSA was 40 times faster than that in the absence of PSA. But, the instability in the absence of PSA was a concern. This instability can be addressed by introducing an electron-withdrawing fluorine atom on the aromatic ring as shown in Table 1. […] In the presence of PSA, they were more quickly hydrolyzed with t½of 43 and 57 min, respectively.

PSA = PSA (Homo sapiens, UniProt P07288); experiment: PSA cleavage of peptide-linker-drug conjugates, disappearance monitored by HPLC; assay type: biochemical; conditions: for half-life: PSA, in the presence of PSA; for Stability Ratio between T1/2 in the absence and presence of PSA: T1/2 (-PSA) / T1/2 (+PSA)
Procedure: as §1

[2] = tested on: LNCaP human prostate cancer cell line; experiment: In vitro antiproliferative activity assay in PSA-producing LNCaP cells; assay type: cell-based; conditions: 72 h drug exposure
From the text: (§2) Furthermore, analogs 5b and 5c were synthesized with an electron-withdrawing fluorine atom at C2 (5b) and C3 (5c), respectively.

[3] = tested on: DU145 human prostate cancer cell line; experiment: In vitro antiproliferative activity assay in non-PSA-producing DU145 cells; assay type: cell-based; conditions: 72 h drug exposure
From the text: as §2

[4] = read-out: T1/2 +PSA (PSA-catalyzed cleavage) (converted)
[5] = read-out: t½ in the presence of PSA

Chain of PSA (P07288 25-261): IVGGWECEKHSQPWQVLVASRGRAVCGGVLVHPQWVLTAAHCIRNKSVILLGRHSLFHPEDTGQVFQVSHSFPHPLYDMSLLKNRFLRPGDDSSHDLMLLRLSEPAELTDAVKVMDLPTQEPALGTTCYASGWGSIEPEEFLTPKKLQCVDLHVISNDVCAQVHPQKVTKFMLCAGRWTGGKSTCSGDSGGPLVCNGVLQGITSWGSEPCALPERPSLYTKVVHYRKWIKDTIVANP

SMILES | half-life [1] [h] | half-life (PSA; [4]) [h] | Stability Ratio between T1/2 in the absence and presence of PSA (PSA) | IC50 [2] [µM] | IC50 [3] | Stability relative to 5a in the absence of PSA [1] | half-life (PSA; [5]) [h]
C[C@H](NC(=O)[C@@H]1C[C@@H](O)CN1C(=O)CCCC(=O)O)C(=O)N[C@@H](CO)C(=O)N[C@H](C(=O)N[C@@H](CCC(N)=O)C(=O)Nc1ccc(COP(N)(=O)N(CCCl)CCCl)cc1)C1CCCCC1 (stereo partly drawn) [5a, glutaryl-Hyp-Ala-Ser-Chg-Gln-NH-benzyl phosphoramide mustard] (Glutaryl-[Hyp]AS[Chg]Q-X3) | 48 | 1.2 | 40 | 11 | ~35 µM and 35 µM |  | 
C[C@H](NC(=O)[C@@H]1C[C@@H](O)CN1C(=O)CCCC(=O)O)C(=O)N[C@@H](CO)C(=O)N[C@H](C(=O)N[C@@H](CCC(N)=O)C(=O)Nc1ccc(COP(N)(=O)N(CCCl)CCCl)c(F)c1)C1CCCCC1 (stereo partly drawn) [5b, glutaryl-Hyp-Ala-Ser-Chg-Gln-NH-2-fluorobenzyl phosphoramide mustard] (Glutaryl-[Hyp]AS[Chg]Q-X1) | 105 | 0.93 | 113 | 5.3 | > 100 µM | much more stable than 5a | 0.717
C[C@H](NC(=O)[C@@H]1C[C@@H](O)CN1C(=O)CCCC(=O)O)C(=O)N[C@@H](CO)C(=O)N[C@H](C(=O)N[C@@H](CCC(N)=O)C(=O)Nc1ccc(COP(N)(=O)N(CCCl)CCCl)cc1F)C1CCCCC1 (stereo partly drawn) [5c, glutaryl-Hyp-Ala-Ser-Chg-Gln-NH-3-fluorobenzyl phosphoramide mustard] (Glutaryl-[Hyp]AS[Chg]Q-X2) | 462 | 0.65 | 711 | 29 | > 100 µM | much more stable than 5a | 0.95
C[C@H](NC(=O)[C@@H]1C[C@@H](O)CN1C(=O)CCCC(=O)O)C(=O)N[C@@H](CO)C(=O)N[C@H](C(=O)N[C@@H](CCC(N)=O)C(=O)Nc1cc(F)c(COP(N)(=O)N(CCCl)CCCl)c(F)c1)C1CCCCC1 (stereo partly drawn) [5d, glutaryl-Hyp-Ala-Ser-Chg-Gln-NH-2,6-difluorobenzyl phosphoramide mustard] (Glutaryl-[Hyp]AS[Chg]Q-X4) | 131 | 1.75 | 75 | 20 | > 100 µM |  | 
C[C@H](NC(=O)[C@@H]1C[C@@H](O)CN1C(=O)CCCC(=O)O)C(=O)N[C@@H](CO)C(=O)N[C@H](C(=O)N[C@@H](CCC(N)=O)C(=O)Nc1c(F)c(F)c(COP(N)(=O)N(CCCl)CCCl)c(F)c1F)C1CCCCC1 (stereo partly drawn) [5e, glutaryl-Hyp-Ala-Ser-Chg-Gln-NH-2,3,5,6-tetrafluorobenzyl phosphoramide mustard] (Glutaryl-[Hyp]AS[Chg]Q-X5) | 178 | 1.1 | 162 | > 100 | > 100 µM |  | 
